29 compounds from patent US20060276464A1, “Diarylsulfone sulfonamides and use thereof” (Wyeth, priority 2005, published 2006) can be followed below.

Where two headings read alike, the source gives them in different places.

This data set concerns the target T1, SFRP-1 (Homo sapiens, UniProt Q8N474).
T1 sequence (Q8N474 32-314): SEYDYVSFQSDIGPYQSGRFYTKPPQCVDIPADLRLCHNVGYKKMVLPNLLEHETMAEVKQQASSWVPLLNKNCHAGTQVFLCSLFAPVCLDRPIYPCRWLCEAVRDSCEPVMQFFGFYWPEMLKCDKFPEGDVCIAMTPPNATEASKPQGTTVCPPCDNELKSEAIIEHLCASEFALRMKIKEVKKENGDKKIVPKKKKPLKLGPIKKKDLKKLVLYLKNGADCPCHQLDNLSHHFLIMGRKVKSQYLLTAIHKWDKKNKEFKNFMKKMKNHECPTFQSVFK
In words: Cell-based assay for in vitro measurement of SFRP-1/SARP2 antagonist activity (U2OS cells co-transfected with 16x TCF-tk-Luciferase reporter, Wnt and hSFRP-1).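 For all read-outs here: U2OS cells co-transfected with a TCF-tk luciferase reporter, a Wnt vector, hSFRP-1 or empty vector and CMV-βgal, luciferase luminescence read in cell lysates alongside βgal activity.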 As to conditions: for fold induction at 15 µM / fold induction at 30 µM: U2OS. For orientation: Reporter assays use an easily measured gene product as a stand-in for the process of interest.

The mark [1] stands for this setting: read-out: Fold Induction with SFRP-1, Conc 15 μM, with SFRP-1, fold induction over SFRP-1 control, single dose.
Setting [2] is: read-out: Fold Induction without SFRP-1, Conc 15 μM, without SFRP-1, single dose.
Where [3] appears, read: read-out: Fold Induction with SFRP-1, Conc 30 μM, with SFRP-1, fold induction over SFRP-1 control, single dose.
The mark [4] stands for this setting: read-out: Fold Induction without SFRP-1, Conc 30 μM, without SFRP-1, single dose.
[5] abbreviates: Conc 30 μM, with SFRP-1, fold induction over SFRP-1 control, single dose.

For the compound `Cc1ccc(S(=O)(=O)c2ccccc2)cc1S(=O)(=O)N[C@H]1CCCC[C@@H]1O` (relative stereo) [Example 412, N-[(1S*,2S*)-2-hydroxycyclohexyl]-2-methyl-5-(phenylsulfonyl)benzenesulfonamide], the fold induction at 15 µM worked out at 1.9 under setting [1] and 1.5 under setting [2].

For `Cc1ccc(S(=O)(=O)c2ccccc2)cc1S(=O)(=O)NCCc1ccccc1` [Example 1, 2-Methyl-N-(2-phenylethyl)-5-(phenylsulfonyl)benzene sulfonamide], the fold induction at 30 µM is, setting by setting: under setting [3], 1.5; under setting [4], 0.6.

In the case of `Cc1ccc(S(=O)(=O)c2ccc(F)cc2)cc1S(=O)(=O)NCCc1ccccc1` [Example 2, 5-[(4-fluorophenyl)sulfonyl]-2-methyl-N-(2-phenylethyl)benzenesulfonamide], the fold induction at 30 µM runs as follows: under setting [3], 0.9; under setting [4], 0.5.

With `Cc1ccc(S(=O)(=O)c2ccc(F)cc2)cc1S(=O)(=O)NCCc1ccccc1Cl` [Example 3, N-[2-(2-chlorophenyl)ethyl]-5-[(4-fluorophenyl)sulfonyl]-2-methylbenzenesulfonamide], the fold induction at 30 µM was 1.1 under setting [3] and 0.4 under setting [4].

Consider `COc1ccccc1CCNS(=O)(=O)c1cc(S(=O)(=O)c2ccc(F)cc2)ccc1C` [Example 4, 5-[(4-fluorophenyl)sulfonyl]-N-[2-(2-methoxyphenyl)ethyl]-2-methylbenzenesulfonamide], for which the fold induction at 30 µM came to 0.1 under setting [3] and 0.1 under setting [4].

`Cc1ccc(S(=O)(=O)c2ccc(F)cc2)cc1S(=O)(=O)NCCc1cccc(F)c1` [Example 24, N-[2-(3-fluorophenyl)ethyl]-5-[(4-fluorophenyl)sulfonyl]-2-methylbenzenesulfonamide]: the fold induction at 30 µM runs as follows: under setting [3], 0.3; under setting [4], 0.3.

With `COc1ccc(Br)cc1CCNS(=O)(=O)c1cc(S(=O)(=O)c2ccc(F)cc2)ccc1C` [Example 30, N-[2-(5-bromo-2-methoxyphenyl)ethyl]-5-[(4-fluorophenyl)sulfonyl]-2-methylbenzenesulfonamide], the “Fold Induction with SFRP-1” value under setting [5] came to 1 fold. The fold induction at 15 µM under setting [1] came to 2.4 and the fold induction at 15 µM under setting [2] stood at 0.9. For the same compound, the fold induction at 30 µM under setting [3] was determined as 1.7.

With `Cc1ccc(S(=O)(=O)c2ccccc2)cc1S(=O)(=O)NCCc1ccccc1Cl` [Example 31, N-[2-(2-chlorophenyl)ethyl]-2-methyl-5-(phenylsulfonyl)benzenesulfonamide], the fold induction at 30 µM runs as follows: under setting [3], 0.4; under setting [4], 0.5.

With `COc1ccccc1CCNS(=O)(=O)c1cc(S(=O)(=O)c2ccccc2)ccc1C` [Example 32, N-[2-(2-methoxyphenyl)ethyl]-2-methyl-5-(phenylsulfonyl)benzenesulfonamide], the fold induction at 30 µM is, setting by setting: under setting [3], 0.5; under setting [4], 0.5.

On to `COc1cccc(CCNS(=O)(=O)c2cc(S(=O)(=O)c3ccccc3)ccc2C)c1` [Example 33, N-[2-(3-methoxyphenyl)ethyl]-2-methyl-5-(phenylsulfonyl)benzenesulfonamide], for which the fold induction at 30 µM by setting is: under setting [3], 1.2; under setting [4], 0.4.

`COc1ccc(CCNS(=O)(=O)c2cc(S(=O)(=O)c3ccccc3)ccc2C)cc1OC` [Example 34, N-[2-(3,4-dimethoxyphenyl)ethyl]-2-methyl-5-(phenylsulfonyl)benzenesulfonamide]: the fold induction at 30 µM by setting is: under setting [3], 1.7; under setting [4], 0.6.

Consider `Cc1ccc(S(=O)(=O)c2ccccc2)cc1S(=O)(=O)NCCc1ccc(S(N)(=O)=O)cc1` [Example 40, N-{2-[4-(aminosulfonyl)phenyl]ethyl}-2-methyl-5-(phenylsulfonyl)benzenesulfonamide], for which the fold induction at 30 µM was 1.7 under setting [3] and 0.9 under setting [4].

Regarding `Cc1ccc(S(=O)(=O)c2ccccc2)cc1S(=O)(=O)NCCc1ccc2c(c1)OCO2` [Example 43, N-[2-(1,3-benzodioxol-5-yl)ethyl]-2-methyl-5-(phenylsulfonyl)benzenesulfonamide], the fold induction at 30 µM was 3.6 under setting [3] and 1 under setting [4].

`CCOc1ccc(CCNS(=O)(=O)c2cc(S(=O)(=O)c3ccccc3)ccc2C)cc1` [Example 51, N-[2-(4-ethoxyphenyl)ethyl]-2-methyl-5-(phenylsulfonyl)benzenesulfonamide]: the fold induction at 30 µM under setting [3] turned out to be 2.6 and the fold induction at 30 µM under setting [4] came out at 0.9.

For `Cc1ccc(S(=O)(=O)c2ccccc2)cc1S(=O)(=O)NCCc1cccc(F)c1` [Example 52, N-[2-(3-fluorophenyl)ethyl]-2-methyl-5-(phenylsulfonyl)benzenesulfonamide], the fold induction at 30 µM reads like this: under setting [3], 1.4; under setting [4], 0.7.

`Cc1ccc(S(=O)(=O)c2ccccc2)cc1S(=O)(=O)NCCc1ccccc1F` [Example 53, N-[2-(2-fluorophenyl)ethyl]-2-methyl-5-(phenylsulfonyl)benzenesulfonamide]: the “Fold Induction with SFRP-1” value under setting [5] came to 1.2 fold. Besides, the “Fold Induction without SFRP-1” value (Conc 30 μM, without SFRP-1, single dose) was 0.6 fold. Moreover, the fold induction at 30 µM under setting [3] came out at 1 and the fold induction at 30 µM under setting [4] amounted to 0.4.

Take `CCOc1cc(CCNS(=O)(=O)c2cc(S(=O)(=O)c3ccccc3)ccc2C)ccc1OC` [Example 54, N-[2-(3-ethoxy-4-methoxyphenyl)ethyl]-2-methyl-5-(phenylsulfonyl)benzenesulfonamide]: under setting [5], the “Fold Induction with SFRP-1” value came out at 3.6 fold. The fold induction at 30 µM was 3.8 under setting [3] and 1.1 under setting [4].

As to `CCOc1ccc(CCNS(=O)(=O)c2cc(S(=O)(=O)c3ccccc3)ccc2C)cc1OC` [Example 55, N-[2-(4-ethoxy-3-methoxyphenyl)ethyl]-2-methyl-5-(phenylsulfonyl)benzenesulfonamide], the fold induction at 30 µM is 3.1 under setting [3] and 0.9 under setting [4].

For the compound `COc1cccc(CCNS(=O)(=O)c2cccc(S(=O)(=O)c3ccccc3)c2)c1` [Example 62, N-[2-(3-methoxyphenyl)ethyl]-3-(phenylsulfonyl)benzenesulfonamide], the fold induction at 15 µM reads like this: under setting [1], 1.2; under setting [2], 1.1.

Consider `CCOc1ccc(CCNS(=O)(=O)c2cccc(S(=O)(=O)c3ccccc3)c2)cc1` [Example 80, N-[2-(4-ethoxyphenyl)ethyl]-3-(phenylsulfonyl)benzenesulfonamide], for which the fold induction at 15 µM is, setting by setting: under setting [1], 1; under setting [2], 0.7.

For `O=S(=O)(NCCc1cccc(F)c1)c1cccc(S(=O)(=O)c2ccccc2)c1` [Example 81, N-[2-(3-fluorophenyl)ethyl]-3-(phenylsulfonyl)benzenesulfonamide], the fold induction at 15 µM was 1 under setting [1] and 0.9 under setting [2].

For the compound `O=S(=O)(NCCc1ccccc1F)c1cccc(S(=O)(=O)c2ccccc2)c1` [Example 82, N-[2-(2-fluorophenyl)ethyl]-3-(phenylsulfonyl)benzenesulfonamide], the fold induction at 15 µM is 1.2 under setting [1] and 1 under setting [2].

Regarding `CCOc1cc(CCNS(=O)(=O)c2cccc(S(=O)(=O)c3ccccc3)c2)ccc1OC` [Example 83, N-[2-(3-ethoxy-4-methoxyphenyl)ethyl]-3-(phenylsulfonyl)benzenesulfonamide], the fold induction at 15 µM reads like this: under setting [1], 1.3; under setting [2], 1.2.

Turning to `Cc1ccc(S(=O)(=O)c2ccc(Cl)cc2)cc1S(=O)(=O)NCCc1ccccc1Cl` [Example 89, N-[2-(2-chlorophenyl)ethyl]-5-[(4-chlorophenyl)sulfonyl]-2-methylbenzenesulfonamide], the fold induction at 30 µM by setting is: under setting [3], 1.8; under setting [4], 0.5.

Take `COc1ccc(CCNS(=O)(=O)c2cc(S(=O)(=O)c3ccc(Cl)cc3)ccc2C)cc1OC` [Example 92, 5-[(4-chlorophenyl)sulfonyl]-N-[2-(3,4-dimethoxyphenyl)ethyl]-2-methylbenzenesulfonamide]: the fold induction at 30 µM came out at 1 under setting [3] and 0.4 under setting [4].

For the compound `Cc1ccc(S(=O)(=O)c2ccc(C)c(S(=O)(=O)NCCc3ccccc3)c2)cc1` [Example 116, 2-methyl-5-[(4-methylphenyl)sulfonyl]-N-(2-phenylethyl)benzenesulfonamide], the fold induction at 30 µM turned out to be 0.9 under setting [3] and 0.4 under setting [4].

Turning to `Cc1ccc(S(=O)(=O)c2ccc(C)c(S(=O)(=O)NCCc3ccccc3Cl)c2)cc1` [Example 117, N-[2-(2-chlorophenyl)ethyl]-2-methyl-5-[(4-methylphenyl)sulfonyl]benzenesulfonamide], the fold induction at 30 µM runs as follows: under setting [3], 1; under setting [4], 0.5.

As for `COc1ccccc1CCNS(=O)(=O)c1cc(S(=O)(=O)c2ccc(C)cc2)ccc1C` [Example 118, N-[2-(2-methoxyphenyl)ethyl]-2-methyl-5-[(4-methylphenyl)sulfonyl]benzenesulfonamide], the fold induction at 30 µM under setting [3] was found to be 1.3 and the fold induction at 30 µM under setting [4] came to 0.5.

Turning to `COc1cccc(CCNS(=O)(=O)c2cc(S(=O)(=O)c3ccc(C)cc3)ccc2C)c1` [Example 119, N-[2-(3-methoxyphenyl)ethyl]-2-methyl-5-[(4-methylphenyl)sulfonyl]benzenesulfonamide], the fold induction at 30 µM was 0.2 under setting [3] and 0.3 under setting [4].
